Seven molecules from PubChem BioAssay (NCI) can be followed below.

Some test systems named below: SK-MEL-2 melanoma; IGROV1 ovarian; COLO 205 colon; CAKI-1 renal; 786-0 renal; HCC-2998 colon; T-47D breast; RXF 393 renal; PC-3 prostate; RPMI-8226 leukemia.
Common to all, as to assay: inhibition of tumour cell growth, NCI panel, 48 h

SMILES strings stand for the structures.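 Protocol summary: plate cells (96-well), add compound at 5 concentrations, incubate 48 h, interpolate endpoints linearly. GI50 = concentration required for 50% inhibition of growth. TGI: concentration producing complete growth inhibition.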

In the case of `COc1c(O)c2c3c(c1OC)-c1ccccc1CC3N(S(=O)(=O)c1ccc(C)cc1)CC2` (stereo not given), the GI50 in the test with SK-MEL-2 melanoma is 1.47 µM; in the test on IGROV1 ovarian it was 2130 nM; with COLO 205 colon, 19.2 µM; in the test with CAKI-1 renal it was 2120 nM; in the test with 786-0 renal it was 4.89 µM; in the test on HCC-2998 colon it was 4.01 µM. In addition, the GI50 in the test with T-47D breast is 1560 nM; in the test on RXF 393 renal, 1340 nM; in the test with PC-3 prostate it was 1650 nM; in the test with RPMI-8226 leukemia, 1510 nM. Besides, the TGI in the test on SK-MEL-2 melanoma is 3.88 µM; in the test on IGROV1 ovarian, greater than 50 µM; in the test on COLO 205 colon, greater than 50 µM; with CAKI-1 renal, greater than 50 µM; with 786-0 renal it was greater than 50 µM; in the test on HCC-2998 colon, 34.1 µM. Besides, the TGI with T-47D breast was 27.9 µM; in the test with RXF 393 renal, 4.12 µM; with PC-3 prostate, greater than 50 µM; with RPMI-8226 leukemia it was 4.25 µM.

With `COc1cc(OC)cc(-c2ccc(-c3ccc(C(=N)N)cn3)s2)c1`, the GI50 in the test on SK-MEL-2 melanoma was 19.5 µM; in the test on IGROV1 ovarian, 1900 nM; with COLO 205 colon, 2.11 µM; in the test with CAKI-1 renal it was 1730 nM; in the test on 786-0 renal, 1.98 µM; in the test on HCC-2998 colon it was 1.84 µM. Also, the GI50 in the test with T-47D breast is 2100 nM; in the test with RXF 393 renal it was 1830 nM; with PC-3 prostate, 1880 nM; in the test with RPMI-8226 leukemia, 2460 nM. Further, the TGI was found to be 40.3 µM with SK-MEL-2 melanoma; 3.73 µM in the test with IGROV1 ovarian; 4.62 µM in the test on COLO 205 colon; 3.2 µM with CAKI-1 renal; 3.72 µM in the test with 786-0 renal; 3.48 µM in the test on HCC-2998 colon. Moreover, the TGI was determined as 5.09 µM in the test on T-47D breast, 3.34 µM with RXF 393 renal, 3.63 µM with PC-3 prostate and 5.51 µM with RPMI-8226 leukemia.

Take `O=C(c1ccccc1)C(Br)C(Br)c1ccccc1` (stereo not given): the GI50 is 10.7 µM in the test with SK-MEL-2 melanoma; 2940 nM in the test with IGROV1 ovarian; 1.92 µM with COLO 205 colon; 1600 nM with CAKI-1 renal; 15.2 µM in the test with 786-0 renal; 13.3 µM in the test on HCC-2998 colon. Further, the GI50 in the test on T-47D breast is 2590 nM; in the test with RXF 393 renal it was 1890 nM; in the test with PC-3 prostate, 18300 nM; in the test with RPMI-8226 leukemia, 3440 nM. The TGI in the test with SK-MEL-2 melanoma amounted to 24.6 µM; with IGROV1 ovarian, 12.2 µM; in the test with COLO 205 colon, 3.5 µM; with CAKI-1 renal, 3.34 µM; with 786-0 renal it was 28.7 µM; with HCC-2998 colon, 26.3 µM. The TGI with T-47D breast came to 6.26 µM; in the test on RXF 393 renal, 3.51 µM; with PC-3 prostate, 33.4 µM; in the test with RPMI-8226 leukemia, 8.11 µM.

Take `Fc1ccc(-c2nn3c(COc4ccc(Cl)cc4)nnc3s2)cc1Oc1ccccc1`: the GI50 in the test on SK-MEL-2 melanoma is 38.6 µM; with IGROV1 ovarian it was 22200 nM; with COLO 205 colon, 41.8 µM; in the test on CAKI-1 renal it was 34900 nM; in the test on 786-0 renal it was 14.2 µM; with HCC-2998 colon, 30.6 µM. The GI50 is 28000 nM in the test with T-47D breast, 26300 nM with RXF 393 renal, 73.5 nM with PC-3 prostate and 13900 nM in the test with RPMI-8226 leukemia. Further, the TGI with SK-MEL-2 melanoma is greater than 100 µM; with IGROV1 ovarian, greater than 54.1 µM; in the test with COLO 205 colon, greater than 61.8 µM; in the test on CAKI-1 renal it was greater than 100 µM; with 786-0 renal, 30 µM; with HCC-2998 colon, 92.8 µM. Also, the TGI is greater than 66.3 µM with T-47D breast, 87.5 µM in the test with RXF 393 renal, 13.6 µM in the test with PC-3 prostate and 29 µM in the test with RPMI-8226 leukemia.

For the molecule `COc1ccc(/C=C/C(C)=N/OCC(=O)Nc2ccc(Cl)cc2)cc1`, the GI50 in the test with SK-MEL-2 melanoma is 3.69 µM; with IGROV1 ovarian it was 3420 nM; in the test on COLO 205 colon, 3.64 µM; with CAKI-1 renal it was 2290 nM; in the test on 786-0 renal, 4.2 µM; in the test with HCC-2998 colon, 3.75 µM. For the same molecule, the GI50 in the test on T-47D breast is 1630 nM; with RXF 393 renal it was 4090 nM; with PC-3 prostate, 1840 nM; in the test on RPMI-8226 leukemia it was 1890 nM. For the same molecule, the TGI was determined as 13.5 µM with SK-MEL-2 melanoma; 51.6 µM in the test with IGROV1 ovarian; 14 µM in the test on COLO 205 colon; 27 µM with CAKI-1 renal; 26.6 µM in the test with 786-0 renal; 15.8 µM in the test on HCC-2998 colon. For the same molecule, the TGI with T-47D breast is 24.8 µM; in the test on RXF 393 renal it was 21.4 µM; in the test with PC-3 prostate, 13.1 µM; with RPMI-8226 leukemia it was 6.21 µM.

Consider `O=c1nc2[nH]c3c(-c4n[nH]c(=O)[nH]c4=O)cccc3c2n[nH]1`, for which the GI50 in the test with SK-MEL-2 melanoma is greater than 100 µM; with IGROV1 ovarian it was greater than 100000 nM; in the test with COLO 205 colon it was greater than 100 µM; with CAKI-1 renal it was greater than 100000 nM; in the test with 786-0 renal it was greater than 100 µM; in the test with HCC-2998 colon, greater than 100 µM. In addition, the GI50 in the test on T-47D breast, in the test on RXF 393 renal, in the test on PC-3 prostate and with RPMI-8226 leukemia was greater than 100000 nM throughout. Moreover, the TGI in the test on SK-MEL-2 melanoma, with IGROV1 ovarian, in the test with COLO 205 colon, in the test on CAKI-1 renal, with 786-0 renal and in the test on HCC-2998 colon was greater than 100 µM throughout. Further, the TGI in the test with T-47D breast, in the test with RXF 393 renal, in the test with PC-3 prostate and in the test on RPMI-8226 leukemia was greater than 100 µM in each case.

For `CNCc1cccc2c1OCCOCCOCCC(C)S(=O)(=O)c1ccc(cc1)-c1cnc(N)c(n1)C(=O)N2` (stereo not given), the GI50 was 2.37 µM in the test with SK-MEL-2 melanoma; 659 nM with IGROV1 ovarian; 0.564 µM in the test with COLO 205 colon; 365 nM with CAKI-1 renal; 0.516 µM with 786-0 renal; 4.53 µM in the test with HCC-2998 colon. Also, the GI50 was 3620 nM in the test with T-47D breast, 175 nM in the test on RXF 393 renal, 1490 nM with PC-3 prostate and 2050 nM with RPMI-8226 leukemia. Moreover, the TGI in the test on SK-MEL-2 melanoma worked out at 6.36 µM; in the test with IGROV1 ovarian, 4.78 µM; in the test on COLO 205 colon, 5.25 µM; with CAKI-1 renal, 2.22 µM; in the test with 786-0 renal it was 2.06 µM; in the test with HCC-2998 colon, 17.2 µM. The TGI with T-47D breast worked out at 18.7 µM; in the test on RXF 393 renal it was 1.6 µM; in the test on PC-3 prostate it was 17.9 µM; with RPMI-8226 leukemia it was 5.12 µM.
